Measured values published in PMC11988912, “Sensitization Potential of the Major Soybean Allergen Gly m 4 and Its Cross-Reactivity with the Birch Pollen Allergen Bet v 1” (International Journal of Molecular Sciences, 2025).

Molecular target: T1, Gly m 4 (Glycine max, UniProt P26987)
T1 construct: gene PR-10; recombinant allergen, full length; made in E. coli
T1 sequence (P26987 1-158): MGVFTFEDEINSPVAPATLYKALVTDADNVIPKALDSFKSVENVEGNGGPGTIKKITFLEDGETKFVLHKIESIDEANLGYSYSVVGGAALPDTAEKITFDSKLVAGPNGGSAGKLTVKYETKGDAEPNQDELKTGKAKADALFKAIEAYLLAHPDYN
Assay: TNS fluorescence displacement
Type: binding
Conditions: 4 uM ligand, 4 uM TNS, 4 uM Gly m 4; 10 mM phosphate buffer pH 7.4, 25 C; residual fluorescence of the Gly m 4-TNS complex

Structure (SMILES)	% of the control fluorescence [%]
C[C@H](CCC(=O)O)[C@H]1CC[C@H]2[C@@H]3[C@H](O)C[C@@H]4C[C@H](O)CC[C@]4(C)[C@H]3C[C@H](O)[C@]12C [CA, cholic acid]	88
C[C@H](CCC(=O)O)[C@H]1CC[C@H]2[C@@H]3[C@H](O)C[C@@H]4C[C@H](O)CC[C@]4(C)[C@H]3CC[C@]12C [CDCA, chenodeoxycholic acid]	53
CC(C)CCC[C@@H](C)[C@H]1CC[C@H]2[C@@H]3CC=C4C[C@@H](O)CC[C@]4(C)[C@H]3CC[C@]12C [CHOL, cholesterol]	83
C[C@H](CCC(=O)O)[C@H]1CC[C@H]2[C@@H]3CC[C@@H]4C[C@H](O)CC[C@]4(C)[C@H]3C[C@H](O)[C@]12C [DCA, deoxycholic acid]	71
C[C@H](CCC(=O)O)[C@H]1CC[C@H]2[C@@H]3CC[C@@H]4C[C@H](O)CC[C@]4(C)[C@H]3CC[C@]12C [LCA, lithocholic acid]	10
